Experimental data reported in patent publication US20090317364A1, “NOVEL COMPOSITIONS FOR PREVENTION AND TREATMENT OF MASTITIS AND METRITIS” (priority 2006, published 2009).

Experiments:
Staphylococcus. aureus [1] = test: Lab trials 2a (in vitro) for synergy, components added in wells for diffusion; format: cell-based
From the text: a) Lab trials 2a (in vitro) for synergy.

Staphylococcus. aureus [2] = test: Lab trials 2b (in vitro) for synergy, components added on top of the culture; format: cell-based
From the text: b) Lab trials 2b (in vitro) for synergy.

Question: What does the source list for “Peptidoglycan N-acetylmuramoylhydrolase [Lysozyme]”?
Answer: Inhibition zone diameter In cm for Staphylococcus. aureus (Staphylococcus. aureus [1]): 1.15 cm; Inhibition zone In diameter cm for Staphylococcus. aureus (Staphylococcus. aureus [2]): 1.1 cm
